# What was measured:
# [1] = system: lymphopenia in COVID-19; details: preliminary studies, reference 24; cited from earlier work
# [2] = system: Trichosporon asahii and Saksenaea species; experiment: Tissue, wound, blood and bone cultures of the fungal wound sepsis patient; assay type: in vivo, human
# Excerpt: They were aggressively treated with daily or alternating-day operative debridement, broad-spectrum parenteral and topical antibacterial and antifungal therapy. Antimicrobial therapy included ceftazidime, metronidazole, trimethoprim-sulfamethoxazole, micafungin, amphotericin B, and posaconazole (FIG. 29), as well as VERAFLO vac instillation of antimicrobials into the wound bed. The patient's polymicrobial soft tissue infection continued to advance and was accompanied by multisystem organ failure and shock. Over a 4-week period, they required debridement of >3000 cm^2 of skin, subcutaneous tissue, and muscle involving the entire perineum, bilateral thighs, buttocks, and circumferential abdominal wall (FIG. 28B).
# Tissue histology also became negative for fungus at approximately the same time as tissue cultures (FIG. 28E).
# [3] = Enzyme-linked immunosorbent assays for plasma type I IFN levels (Example 5); assay type: in vivo, human; details: plasma of critically ill COVID-19 patient
# [4] = system: PBMCs (T cell IFN-γ production); details: critically ill COVID 19 disease patients, reference 18; cited from earlier work
# [5] = system: lymphocytes in infected wound; experiment: Anti-CD3 immunohistochemical staining of wound biopsies; assay type: in vivo, human; details: after initiation of IL-7
# Excerpt: A beneficial effect of IL-7 in infectious disorders is to increase expression of lymphocyte adhesion molecules and induce lymphocyte trafficking to sites of infection.
# [6] = system: PBMCs (myeloid cell TNF-α production); experiment: PBMC ELISpot, LPS-stimulated TNF-α production (Example 2); assay type: cell-based, human
# Procedure: (§1) Fresh whole blood samples were processed within 90 min of collection as previously described (28). Briefly, blood was diluted in an equal volume of PBS and layered carefully on Ficoll Paque PLUS (GE Healthcare). The PBMC fraction was isolated following centrifugation at 500×g for 30 min at room temperature. The number of total PBMCs was determined with a Vi-CELL Viability Analyzer (Beckman Coulter, Brea, Calif.). Flow cytometry was performed on PBMC fraction for cell typing.
# Innate and adaptive immune function was assessed using ELISpot analysis by measurement of the production of IFN-γ and TNF-α in ex vivo-stimulated cells following overnight culture. Capture Ab precoated 96-well polyvinylidene difluoride-backed strip plates were used for single color enzymatic assays (ImmunoSpot; Cellular Technology [CTL], Cleveland, Ohio) for detection of human IFN-γ and TNF-α. ELISpot culture procedure was followed as directed using instructions from the ELISpot kit. Samples were run in duplicate for each test condition. Plates were prepared with stimulant and were incubated at 37° C. and 5% CO2 for 30 min prior to plating cells. Identical conditions were prepared for comparison of whole blood assay to PBMC assay, and culture media alone was used as a negative control. Combination of 500 ng/ml of anti-CD3 (clone HIT3a; BioLegend) with 2.5 μg/ml of anti-CD28 (clone CD28.2; BioLegend) Abs were used to induce IFN-γ, and 2.5 ng/ml LPS (from Salmonella abortus equi S-form, ALX-581-009; Enzo Life Sciences, Farmingdale, N.Y.) was used to induce TNF-α wells. Total well volume for all samples was 200 μl. PBMCs were plated into wells in quantities of 2.5×10^4 cells per well for IFN-γ and 2.5×10^3 cells per well for TNF-α. […]
# (§2) Samples were scanned, analyzed, and quality controlled for spot count, spot area, and TWI using a Cellular Technology series 6 ImmunoSpot Universal Analyzer with ImmunoSpot 7.0 professional software (Cellular Technology Analyzers, Shaker Heights, Ohio). […]
# The number of cytokine-secreting cells present in each ELISpot well is referred to as spot-forming units (SFU) and is reported in two distinct ways. […] The number of lymphocytes in each well was determined based upon the absolute lymphocyte count as measured by the patients' complete blood count. For ELISpot studies involving PBMCs, flow cytometry was performed on the PBMC fraction, and the number of lymphocytes, monocytes, and residual neutrophils were determined. […] Samples were acquired on FACScan (Becton Dickenson, Franklin Lakes, N.J.) with a five-color modification (CyTek Biosciences, Fremont, Calif.) and analyzed using FlowJo 10.2 (FlowJo, Ashland, Oreg.) as previously described (28). […]
# [7] = system: SARS-CoV-2; experiment: COVID-19-specific antibody levels (Example 5); assay type: in vivo, human; details: critically ill COVID-19 patient
# [8] = system: peripheral blood mononuclear cells (T cell IFN-γ production); assay type: cell-based, human
# [9] = system: PBMCs (T cell IFN-γ production); experiment: PBMC ELISpot, CD3/CD28-stimulated IFN-γ production (Example 2); assay type: cell-based, human
# Procedure: as §1
# Innate and adaptive immune function was assessed using ELISpot analysis by measurement of the production of IFN-γ and TNF-α in ex vivo-stimulated cells following overnight culture. […] PBMCs were plated into wells in quantities of 2.5×10^4 cells per well for IFN-γ and 2.5×10^3 cells per well for TNF-α. […]
# as §2
# The number of cytokine-secreting cells present in each ELISpot well is referred to as spot-forming units (SFU) and is reported in two distinct ways. […] The number of lymphocytes in each well was determined based upon the absolute lymphocyte count as measured by the patients' complete blood count. […]
# [10] = system: sepsis-induced lymphopenia; details: clinical trial, reference 54; cited from earlier work
# [11] = system: PBMCs (TNF-α-producing cells); experiment: ELISpot, lipopolysaccharide-stimulated TNF-α in patient PBMCs before and after IL-7 therapy (Example 5); assay type: in vivo, human; details: concomitant with initiation of IL-7 treatment
substance,measurement,setting,value
"IL-7: recombinant human IL-7, immunoadjuvant and potent T cell activator; R&D Systems ex vivo, RevImmune for patients",increase of ALCs in COVID-19 disease patients treated with IL-7,[1],two- to three-fold
same,tolerability of IL-7 in COVID-19 disease patients,[1],well tolerated
same,tissue cultures after initiation of IL-7 therapy,[2]; by the fifth dose of IL-7,persistently negative cultures
same,"time blood, wound and bone cultures stayed negative for bacterial or fungal pathogens after completing IL-7 therapy","[2]; human, in vivo",40 days
same,IFN-α (all subtypes) plasma concentration,"[3]; Post IL-7, Day 12",Undetectable
same,IFN-β plasma concentration,"[3]; Post IL-7, Day 12",130 pg/mL
same,IFN-α (all subtypes) plasma concentration,"[3]; Post IL-7, Day 21",Undetectable
same,IFN-β plasma concentration,"[3]; Post IL-7, Day 21",4.1 pg/mL
same,lymphocyte IFN-γ production on ex vivo addition of IL-7 to PBMCs,[4],doubled
same,number of CD3+ lymphocytes in biopsies from the infected wound,[5],marked increase
same,septic patients in whom IL-7 increased TNF-α production,"[6]; PBMC ELISpot, patients out of total",13/19
same,change in TNF-α SFUs with IL-7,"[6]; PBMC, CINS",significant increase
same,change in TNF-α SFUs with IL-7,"[6]; PBMCs, healthy subjects",no change
same,overall increase in TNF-α SFUs with IL-7,"[6]; PBMCs, septic patients, p<0.01",97%
same,Coronavirus disease immunoglobulin G/M/A,"[7]; Post IL-7, Day 12",High positive
same,Coronavirus disease immunoglobulin G/M/A,"[7]; Post IL-7, Day 21",High positive
same,T cell function on coincubation with both dexamethasone and IL-7,[8],restored
same,effect of IL-7 on IFN-γ SFUs,"[9]; PBMC, healthy subjects and CINS patients",significantly increased
same,effect of IL-7 on T cell IFN-γ production,"[9]; PBMCs, septic patients, p<0.0001",restore T cell IFN-γ production
same,effect on sepsis-induced lymphopenia,[10],reversed sepsis-induced lymphopenia
same,tolerability of IL-7 in patients with sepsis,[10],well tolerated
same,increase in the number of TNF-α-producing cells,[11],multifold increases
